Assays:
HDAC1 = target: T1, HDAC1 (Homo sapiens, UniProt Q13547); assay: HDAC1 enzyme activity inhibition (HDAC1 fluorimetric drug discovery assay kit); format: biochemical; settings: 37° C., 60 minutes; tested at 100, 1000 and 10000 nM
T1 construct: purchased Enzolifesciences BML-AK511
Experimental: (§1) 1. Experiment on Activities in HDAC Enzymes (HDAC1 and HDAC6)
(§2) Assays were performed using a HDAC1 fluorimetric drug discovery assay kit (Enzolifesciences: BML-AK511) and a HDAC6 human recombinant (Calbiochem: 382180). The assay mixture of the kit was treated with each of the compounds of the Examples at concentrations 100, 1000 and 10000 nM for HDAC1 assay and 0.1, 1, 10, 100 and 1000 nM for HDAC6 assay. The treated assay mixture was allowed to react at 37° C. for 60 minutes, and then was treated with a developer and allowed to stand at 37° C. for 30 minutes, followed by quantification of the fluorescence. In Table 17, lower HDAC6 values (μM) indicate higher HDAC6 inhibitory activities of the compounds. Also, because selective HDAC6 inhibitors should not inhibit HDAC1 (μM), higher HDAC1 values indicate higher HDAC6 selectivity of the compounds.

HDAC6 human recombinant = target: T2, HDAC6 human recombinant (Homo sapiens, UniProt Q9UBN7); assay: HDAC6 enzyme activity inhibition (fluorimetric, in vitro); format: biochemical; settings: 37° C., 60 minutes; tested at 0.1, 1, 10, 100 and 1000 nM
T2 construct: purchased Calbiochem 382180
T2 sequence (Q9UBN7 1-1215): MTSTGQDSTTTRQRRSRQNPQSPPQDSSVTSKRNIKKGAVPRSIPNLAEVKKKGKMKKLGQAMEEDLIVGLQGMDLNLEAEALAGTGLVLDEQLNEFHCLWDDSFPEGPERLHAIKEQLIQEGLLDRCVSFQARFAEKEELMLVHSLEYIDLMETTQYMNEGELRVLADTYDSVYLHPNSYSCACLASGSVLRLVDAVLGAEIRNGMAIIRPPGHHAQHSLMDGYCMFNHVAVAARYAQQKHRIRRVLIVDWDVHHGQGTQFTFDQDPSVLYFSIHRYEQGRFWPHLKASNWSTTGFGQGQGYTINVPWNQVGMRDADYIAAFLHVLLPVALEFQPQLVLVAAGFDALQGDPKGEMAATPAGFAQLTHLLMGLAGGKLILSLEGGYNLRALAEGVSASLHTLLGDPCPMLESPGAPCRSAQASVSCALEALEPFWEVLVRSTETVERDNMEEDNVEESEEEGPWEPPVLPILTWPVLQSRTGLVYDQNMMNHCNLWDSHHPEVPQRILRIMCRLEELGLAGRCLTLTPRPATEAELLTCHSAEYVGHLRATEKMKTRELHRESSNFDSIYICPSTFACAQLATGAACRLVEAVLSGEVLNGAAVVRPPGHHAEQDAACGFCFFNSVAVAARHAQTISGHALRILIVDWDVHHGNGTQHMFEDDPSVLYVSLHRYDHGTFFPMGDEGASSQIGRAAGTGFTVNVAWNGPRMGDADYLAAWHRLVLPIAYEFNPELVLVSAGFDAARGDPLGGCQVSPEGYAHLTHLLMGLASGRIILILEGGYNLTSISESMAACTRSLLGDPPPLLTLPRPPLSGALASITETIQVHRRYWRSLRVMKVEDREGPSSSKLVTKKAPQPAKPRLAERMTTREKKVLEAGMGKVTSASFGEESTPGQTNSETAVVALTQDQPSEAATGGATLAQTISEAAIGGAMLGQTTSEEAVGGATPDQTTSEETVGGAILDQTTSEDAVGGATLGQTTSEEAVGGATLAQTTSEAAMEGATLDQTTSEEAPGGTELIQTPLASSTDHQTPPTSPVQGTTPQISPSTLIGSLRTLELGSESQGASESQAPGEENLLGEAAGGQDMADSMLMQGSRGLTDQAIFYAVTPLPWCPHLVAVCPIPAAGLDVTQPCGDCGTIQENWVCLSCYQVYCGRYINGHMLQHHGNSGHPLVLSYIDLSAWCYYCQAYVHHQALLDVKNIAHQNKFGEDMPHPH
Experimental: as §1, §2

T1 sequence (Q13547 whole entry): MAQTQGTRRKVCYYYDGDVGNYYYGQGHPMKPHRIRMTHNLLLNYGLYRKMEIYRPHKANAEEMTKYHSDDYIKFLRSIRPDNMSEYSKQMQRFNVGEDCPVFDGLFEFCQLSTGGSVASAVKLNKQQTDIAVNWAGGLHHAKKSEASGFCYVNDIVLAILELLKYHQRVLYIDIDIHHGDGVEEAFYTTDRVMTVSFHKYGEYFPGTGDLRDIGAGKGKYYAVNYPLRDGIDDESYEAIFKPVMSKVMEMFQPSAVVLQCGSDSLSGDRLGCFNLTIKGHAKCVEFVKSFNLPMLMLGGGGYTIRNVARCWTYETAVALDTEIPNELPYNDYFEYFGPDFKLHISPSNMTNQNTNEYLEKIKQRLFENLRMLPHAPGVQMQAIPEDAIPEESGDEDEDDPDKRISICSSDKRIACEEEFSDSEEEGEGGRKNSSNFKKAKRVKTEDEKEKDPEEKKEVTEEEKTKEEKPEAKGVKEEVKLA

Compound	IC50 (HDAC1)	IC50 (HDAC6 human recombinant)
CC(=O)N1CCC(F)(CN2CCC(Cn3c(C)c(Cc4ccc(C(=O)NO)cc4)c4ccccc43)CC2)CC1 [Compound 612, 4-((1-((1-((1-acetyl-4-fluoropiperidin-4-yl)methyl)piperidin-4-yl)methyl)-2-methyl-1H-indol-3-yl)methyl)-N-hydroxybenzamide]	9100 nM	61 nM
Cc1c(Cc2ccc(C(=O)NO)cc2)c2ccccc2n1CC1CCN(Cc2cc(F)c(F)cc2F)CC1 [Compound 619, N-hydroxy-4-((2-methyl-1-((1-(2,4,5-trifluorobenzyl)piperidin-4-yl)methyl)-1H-indol-3-yl)methyl)benzamide]	> 10000 nM	770 nM
Cc1c(Cc2ccc(C(=O)NO)cc2)c2ccccc2n1CC1CCN(Cc2ccccc2F)CC1 [Compound 620, 4-((1-((1-(2-Fluorobenzyl)piperidin-4-yl)methyl)-2-methyl-1H-indol-3-yl)methyl)-N-hydroxybenzamide]	> 10000 nM	306 nM
Cc1c(Cc2ccc(C(=O)NO)cc2)c2ccccc2n1CC1CCN(Cc2ccccn2)CC1 [Compound 623, N-hydroxy-4-((2-methyl-1-((1-(pyridin-2-ylmethyl)piperidin-4-yl)methyl)-1H-indol-3-yl)methyl)benzamide]	1480 nM	28 nM
CC(C)(F)CN1CCC(Cn2c(-c3ccncc3)c(Cc3ccc(C(=O)NO)cc3)c3ccccc32)CC1 [Compound 624, 4-((1-((1-(2-Fluoro-2-methylpropyl)piperidin-4-yl)methyl)-2-(pyridin-4-yl)-1H-indol-3-yl)methyl)-N-hydroxybenzamide]	5010 nM	107 nM
CC(C)(F)CN1CCC(Cn2c(-c3cc(F)cc(F)c3)c(Cc3ccc(C(=O)NO)cc3)c3ccccc32)CC1 [Compound 626, 4-((2-(3,5-Difluorophenyl)-1-((1-(2-fluoro-2-methylpropyl)piperidin-4-yl)methyl)-1H-indol-3-yl)methyl)-N-hydroxybenzamide]	> 10000 nM	587 nM
Cc1c(Cc2ccc(C(=O)NO)cc2)c2ccccc2n1CC1CCN(Cc2cccc(F)c2)CC1 [Compound 631, 4-((1-((1-(3-Fluorobenzyl)piperidin-4-yl)methyl)-2-methyl-1H-indol-3-yl)methyl)-N-hydroxybenzamide]	> 10000 nM	1360 nM
Cc1c(Cc2ccc(C(=O)NO)cc2)c2ccccc2n1CC1CCN(Cc2cccnc2)CC1 [Compound 632, N-hydroxy-4-((2-methyl-1-((1-(pyridin-3-ylmethyl)piperidin-4-yl)methyl)-1H-indol-3-yl)methyl)benzamide]	1790 nM	63 nM
Cc1c(Cc2ccc(C(=O)NO)cc2)c2ccccc2n1CC1CCN(CC2(F)CCN(C(C)C)CC2)CC1 [Compound 681, 4-((1-((1-((4-Fluoro-1-isopropylpiperidin-4-yl)methyl)piperidin-4-yl)methyl)-2-methyl-1H-indol-3-yl)methyl)-N-hydroxybenzamide]	802 nM	37 nM
Cc1c(Cc2ccc(C(=O)NO)cc2)c2ccccc2n1CC1CCN(CC2(F)CCN(S(C)(=O)=O)CC2)CC1 [Compound 696, 4-((1-((1-((4-Fluoro-1-(methylsulfonyl)piperidin-4-yl)methyl)piperidin-4-yl)methyl)-2-methyl-1H-indol-3-yl)methyl)-N-hydroxybenzamide]	> 10000 nM	123 nM
Cc1c(Cc2ccc(C(=O)NO)cc2)c2ccccc2n1CC1CCN(CC2(F)CCCCC2)CC1 [Compound 698, 4-((1-((1-((1-Fluorocyclohexyl)methyl)piperidin-4-yl)methyl)-2-methyl-1H-indol-3-yl)methyl)-N-hydroxybenzamide]	> 10000 nM	430 nM
Cc1c(Cc2ccc(C(=O)NO)cc2)c2ccccc2n1CC1CCN(CC2(C(F)(F)F)CCC2)CC1 [Compound 728, N-hydroxy-4-((2-methyl-1-((1-((1-(trifluoromethyl)cyclobutyl)methyl)piperidin-4-yl)methyl)-1H-indol-3-yl)methyl)benzamide]	> 10000 nM	1190 nM
CC(C)(F)CN1CCC(Cn2cc(C(O)c3ccc(C(=O)NO)cc3)c3cccnc32)CC1 (centres unmarked) [Compound 747, 4-((1-((1-(2-Fluoro-2-methylpropyl)piperidin-4-yl)methyl)-1H-pyrrolo[2,3-b]pyridin-3-yl)(hydroxy)methyl)-N-hydroxybenzamide]	6100 nM	334 nM

Now from value to compound:

IC50 (HDAC1)	IC50 (HDAC6 human recombinant)	Compound
6740 nM	69 nM	Cc1c(Cc2ccc(C(=O)NO)cc2)c2ccccc2n1CC1CCN(CC2(F)CCN(CC(C)(C)O)CC2)CC1 [Compound 613, 4-((1-((1-((4-fluoro-1-(2-hydroxy-2-methylpropyl)piperidin-4-yl)methyl)piperidin-4-yl)methyl)-2-methyl-1H-indol-3-yl)methyl)-N-hydroxybenzamide]
> 10000 nM	7 nM	Cc1c(Cc2ccc(C(=O)NO)cc2)c2ccccc2n1CC1CCN(CC2(F)CCN(CC(C)(C)F)CC2)CC1 [Compound 615, 4-((1-((1-((4-Fluoro-1-(2-fluoro-2-methylpropyl)piperidin-4-yl)methyl)piperidin-4-yl)methyl)-2-methyl-1H-indol-3-yl)methyl)-N-hydroxybenzamide]
5720 nM	71 nM	CC(C)(F)CN1CCC(Cn2c(-c3cncnc3)c(Cc3ccc(C(=O)NO)cc3)c3ccccc32)CC1 [Compound 625, 4-((1-((1-(2-Fluoro-2-methylpropyl)piperidin-4-yl)methyl)-2-(pyrimidin-5-yl)-1H-indol-3-yl)methyl)-N-hydroxybenzamide]
1760 nM	75 nM	Cc1c(Cc2ccc(C(=O)NO)cc2)c2ccccc2n1CCN1C[C@@H](C)N(CC(C)(C)F)[C@@H](C)C1 [Compound 633, 4-((1-(2-((3S,5R)-4-(2-fluoro-2-methylpropyl)-3,5-dimethylpiperazin-1-yl)ethyl)-2-methyl-1H-indol-3-yl)methyl)-N-hydroxybenzamide]
4980 nM	76 nM	Cc1c(Cc2ccc(C(=O)NO)cc2)c2ccccc2n1CCCCN1CCN(CC(C)(C)F)CC1 [Compound 639, 4-((1-(4-(4-(2-Fluoro-2-methylpropyl)piperazin-1-yl)butyl)-2-methyl-1H-indol-3-yl)methyl)-N-hydroxybenzamide]
7600 nM	115 nM	Cc1c(Cc2ccc(C(=O)NO)cc2)c2ccccc2n1CCCN1CCN(CC(C)(C)F)CC1 [Compound 640, 4-((1-(3-(4-(2-Fluoro-2-methylpropyl)piperazin-1-yl)propyl)-2-methyl-1H-indol-3-yl)methyl)-N-hydroxybenzamide]
4580 nM	28 nM	Cc1c(Cc2ccc(C(=O)NO)cc2)c2ccccc2n1CC1CCN(CC2(C)COC2)CC1 [Compound 643, N-hydroxy-4-((2-methyl-1-((1-((3-methyloxetan-3-yl)methyl)piperidin-4-yl)methyl)-1H-indol-3-yl)methyl)benzamide]
832 nM	13 nM	Cc1c(Cc2ccc(C(=O)NO)cc2)c2ccccc2n1CC1CCN(CC2(F)CCN(C)CC2)CC1 [Compound 679, 4-((1-((1-((4-Fluoro-1-methylpiperidin-4-yl)methyl)piperidin-4-yl)methyl)-2-methyl-1H-indol-3-yl)methyl)-N-hydroxybenzamide]
> 10000 nM	246 nM	Cc1c(Cc2ccc(C(=O)NO)cc2)c2ccccc2n1CC1CCN(CC(C)(C)F)C1 (centres unmarked) [Compound 713, 4-((1-((1-(2-Fluoro-2-methylpropyl)pyrrolidin-3-yl)methyl)-2-methyl-1H-indol-3-yl)methyl)-N-hydroxybenzamide]

— US20160355475A1, “NOVEL INDOLE DERIVATIVE COMPOUND AND PHARMACEUTICAL COMPOSITION COMPRISING THE SAME” (CHONG KUN DANG PHARMACEUTICAL CORP., priority 2014, published 2016)
